Data set [1] in a line: Parallel Artificial Membrane Permeability Assay (PAMPA). Format: in vitro ADME. As for the experimental part:
PAMPA (Parallel Artificial Membrane Permeability Assay) is a first-line permeability screen for drug candidates. This assay mimics the transcellular absorption conditions using an artificial phospholipid membrane and generates a permeability value that can be used for compound ranking and optimization as well as input parameters for in silico models to predict intestinal absorption.
Permeation experiments are carried out in hydrophobic PVDF 96-well microtiter filter plates (MultiScreen Filter Plate, Millipore, #MAIPN4550). Each well is coated with PVDF membrane, which is prepared with 5 μL Dodecane (Sigma, D221104) that contains 1% lecithin (Sigma, P3556-1G).
The typical PAMPA experimental protocol is as follows: The donor plate is placed on a Teflon acceptor plate that has been pre-filled with […] of 100 mM PBS buffer (2.6 g KH2PO4 and 18.5 g K2HPO4·3H2O are dissolved in about 1000 mL of ultra-pure water and mixed thoroughly. The pH is adjusted to 7.40±0.05, using either 1 M sodium hydroxide or 1M hydrochloric acid) containing 5% DMSO. The filter on the bottom of each acceptor well is filled with 300 μL of 100 mM PBS buffer (2.6 g KH2PO4 and 18.5 g K2HPO4·3H2O are dissolved in about 1000 mL of ultra-pure water, mixed thoroughly. The pH was adjusted to 7.40±0.05, using either 1 M sodium hydroxide or 1M hydrochloric acid). The resulting sandwich is incubated at room temperature under constant shaking (300 rpm) for 4 hours. The sandwich is then disassembled. Before incubation, spike 20 μL dosing solution and mix with 250 μL PBS and 130 μL quench solution (acetonitrile) as TO sample. After incubation, collect 270 μL solutions from acceptor chamber, followed by the addition of 130 μL acetonitrile. Collect 20 μL solution from donor chamber and add 250 μL PBS and 130 μL acetonitrile. The concentration of compound in all samples are determined by LC-MS/MS and the equations for determining the permeability (Pe, 10^−6 cm/s) are as follows.
VD is the volume of the donor well; VR is the volume of the acceptor well; Area is the active surface area of membrane; Time is the incubation time (14,400 s in this assay); CR and CD are the concentrations of compound in acceptor and donor solutions, respectively, at the completion of the assay; C0 is the concentration of compound in donor solution before incubation.
The main readout of the PAMPA assay is the permeability value Pe expressed in 10^−6 cm/s. Secondary readouts determined are the amounts of compound in the donor and acceptor compartments as well as compound retention in the membrane. Depending on the permeation rate and the membrane retention, compounds are classified as “low” (Pe<0.2 and membrane retention<20%) or “medium & high” (Pe>=0.2; or Pe<0.2 and membrane retention>=20%). Each sample is measured in triplicate; the standard deviation is determined for the permeation constant Pe.

Another data set addresses human TLR7 (Homo sapiens (Human), UniProt Q9NYK1). In words: HEK293-Blue-hTLR-7 cells assay. The note with it: HEK293-Blue-hTLR7 cells, R848 stimulation, 20 hrs, SEAP reporter; read-out: HEK/hTLR7 IC50. The format is cell-based. From the text: A stable HEK293-Blue-hTLR-7 cell line was purchased from InvivoGen (Cat. #: hkb-htlr7, San Diego, Calif., USA). These cells were originally designed for studying the stimulation of human TLR7 by monitoring the activation of NF-κB. A SEAP (secreted embryonic alkaline phosphatase) reporter gene was placed under the control of the IFN-β minimal promoter fused to five NF-κB and AP-1-binding sites. The SEAP was induced by activating NF-κB and AP-1 via stimulating HEK-Blue hTLR7 cells with TLR7 ligands. Therefore the reporter expression was declined by TLR7 antagonist under the stimulation of a ligand, such as R848 (Resiquimod), for incubation of 20 hrs. The cell culture supernatant SEAP reporter activity was determined using QUANTI-Blue™ kit (Cat. #: rep-qb1, Invivogen, San Diego, Ca, USA) at a wavelength of 640 nm, a detection medium that turns purple or blue in the presence of alkaline phosphatase.
HEK293-Blue-hTLR7 cells were incubated at a density of 250,000˜450,000 cells/mL in a volume of 170 μL in a 96-well plate in Dulbecco's Modified Eagle's medium (DMEM) containing 4.5 g/L glucose, 50 U/mL penicillin, […], […], 2 mM L-glutamine, 10% (v/v) heat-inactivated fetal bovine serum with addition of 20 μL test compound in a serial dilution in the presence of final DMSO at 1% and 10 μL of 20 uM R848 in above DMEM, perform incubation under 37° C. in a CO2 incubator for 20 hrs. Then 20 μL of the supernatant from each well was incubated with 180 μL Quanti-blue substrate solution at 37° C. for 2 hrs and the absorbance was read at 620-655 nm using a spectrophotometer. The signaling pathway that TLR7 activation leads to downstream NF-κB activation has been widely accepted, and therefore similar reporter assay was modified for evaluating TLR7 antagonist.

Sequence of human TLR7 (Q9NYK1 27-1049): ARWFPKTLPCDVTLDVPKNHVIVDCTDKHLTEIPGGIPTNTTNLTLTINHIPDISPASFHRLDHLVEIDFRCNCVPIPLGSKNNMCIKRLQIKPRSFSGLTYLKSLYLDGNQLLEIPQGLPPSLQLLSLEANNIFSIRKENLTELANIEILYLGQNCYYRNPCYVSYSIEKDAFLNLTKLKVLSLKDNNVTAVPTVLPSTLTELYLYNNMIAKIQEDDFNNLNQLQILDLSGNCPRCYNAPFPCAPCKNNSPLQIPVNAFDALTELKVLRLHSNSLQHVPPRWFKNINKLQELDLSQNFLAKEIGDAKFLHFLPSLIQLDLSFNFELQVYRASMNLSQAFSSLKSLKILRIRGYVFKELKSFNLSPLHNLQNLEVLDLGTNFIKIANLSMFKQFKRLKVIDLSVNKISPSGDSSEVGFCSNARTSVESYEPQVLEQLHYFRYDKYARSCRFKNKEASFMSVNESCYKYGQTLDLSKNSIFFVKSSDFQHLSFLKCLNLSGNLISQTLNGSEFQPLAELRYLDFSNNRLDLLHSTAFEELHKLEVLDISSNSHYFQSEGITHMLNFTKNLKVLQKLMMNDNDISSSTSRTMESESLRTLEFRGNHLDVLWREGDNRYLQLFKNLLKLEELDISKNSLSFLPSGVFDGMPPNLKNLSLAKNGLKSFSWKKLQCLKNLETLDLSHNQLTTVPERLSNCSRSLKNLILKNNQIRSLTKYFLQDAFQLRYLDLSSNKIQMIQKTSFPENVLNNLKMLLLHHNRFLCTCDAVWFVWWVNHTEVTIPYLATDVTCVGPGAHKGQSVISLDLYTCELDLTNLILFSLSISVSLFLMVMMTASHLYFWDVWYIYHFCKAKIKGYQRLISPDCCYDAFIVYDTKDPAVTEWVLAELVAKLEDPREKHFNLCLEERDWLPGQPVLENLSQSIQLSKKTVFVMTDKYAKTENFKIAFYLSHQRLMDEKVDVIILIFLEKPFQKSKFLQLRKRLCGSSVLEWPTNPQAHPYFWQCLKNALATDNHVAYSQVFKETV

As to `Cc1cn2cc(-c3ccc(N4CCNC[C@H]4CO)nc3C(C)C)cc(C)c2n1` [Example 5, [(2S)-1-[5-(2,8-dimethylimidazo[1,2-a]pyridin-6-yl)-6-isopropyl-2-pyridyl]piperazin-2-yl]methanol], the “Membrane Retention” value in data set [1] (PAMPA, pH 7.40, 4 hours) is listed as 17.82%. The Papp at 4 h in data set [1] (PAMPA, pH 7.4, pH 7.40, 4 hours, room temperature, read-out: PAMPA Pe) is 2.1 ×10⁻⁶ cm/s. The PAMPA category entry in data set [1] (classified by Pe and membrane retention) was “medium & high (“medium & high” (Pe>=0.2; or Pe<0.2 and membrane retention>=20%))”. In addition, the IC50 on human TLR7 came out at 21.4 nM.

For the origin of these results see patent publication US20230279001A1, “IMIDAZO[1,2-A]PYRIDINE COMPOUNDS FOR THE TREATMENT OF AUTOIMMUNE DISEASE” (Hoffmann-La Roche Inc., priority 2020, published 2023).
